Reference: patent US20050042747A1, “Hivgp120-induced bob/gpr15 activation” (priority 2001, published 2005)

What was measured:
Assay type in all cases: cell-based, human
[1] = system: peripheral blood mononuclear cells; test: gp120-induced calcium flux in peripheral blood mononuclear cells
Procedure: Normal human peripheral blood mononuclear cells were isolated by Ficoll gradient centrifugation, and loaded with the calcium sensitive dye Fluo-4. HIV gp120IIIB induced strong calcium fluxes in the range of 7 nM to 50 pM, and there was a weaker signal at 5 pM.
Experiments corresponding to those with HT-29 cells were done with peripheral blood mononuclear cells. These were isolated from the blood of a healthy, HIV-uninfected person by a Ficoll-Hypaque techique (Histopaque, Sigma), then loaded with Fluo-4 by a technique nearly identical to that used for HT-29 cells, except that Hank's buffer was used rather than Locke's, and the cells were centrifuged (2,000 g for 10 minutes) just before calcium flux measurements to improve adherence. Gp120-induced calcium fluxes were documented with as little as 5 pM gp120IIIB.

[2] = system: microtubules in HT-29 cells; test: Microtubule staining (acetylated tubulin) in HT-29 cells; details: one hour after gp120 treatment
Procedure: To examine the microtubules, HT-29 cells were treated with 10 nM gp120CM235 or 50 pM gp120IIIB, then fixed one hour later in 4 g/100 ml paraformaldehyde PBS, then stained with mouse anti acetylated tubulin (5 μg/ml, Sigma) by a method similar to that given above. Some cells were pretreated with 50 μg/ml antiBob37 overnight, 1 μg/ml pertussis toxin overnight, or 4.6 μg/ml U73122 for one hour before the gp120 was added. Untreated cells were also stained.
Similarly treated undifferentiated HT-29 cells (except that Fluo-4 was not added) were fixed in paraformaldehyde phosphate buffered saline one hour after gp120 treatment.

HT-29 cells = test: Calcium signaling in HT-29 cells (Fluo 4, confocal microscope)
Procedure: HT-29 cells (from ATCC) were grown in DMEM-F12 with 10% bovine calf serum, and were used 24-48 hours after plating. The Ghost (3) cells were obtained from the AIDS Research and Reference Reagent Program, and were grown DMEM with 10% bovine calf serum supplemented with 500 μg/ml G418, 100 μg/ml hygromycin, and 1 μg/ml puromycin.^27 These cells were used 24 to 96 hours after plating.
Calcium studies were done on HT-29 cells and Ghost (3) cells loaded with Fluo 4. The cells were placed in Locke's buffer containing 5 μg/ml Fluo 4 AM ester (Molecular Probes) for 20 to 30 minutes, then in Locke's buffer for an additional 30 minutes before testing. Various concentrations of gp120IIIB (X4 trophic), gp120CM235 (R5 trophic), gp120mN (X4 trophic), gp12093TH975 (nonsyncytium-inducing primary isolate from an asymptomatic subject, trophism undetermined but likely R5), and gp120SF2 (X4R5 trophic), ranging from 10 nM to less than 1 pM, were added in Locke's buffer.^6 The gp120 proteins were obtained from the AIDS Research Reagent Referral Program. Some HT-29 cells were given one of the following pretreatments: 50 μg/ml anti-Bob37 overnight, 1 μg/ml pertussis toxin overnight, or 4.6 μg/ml U73122 for one hour. With the HT-29 cells only, similar tests were also performed with SDF-1, MIP-1α, MIP-1β, and RANTES rather than gp120. The cells were visualized every 4 seconds in a confocal microscope, using 488 nm argon laser excitation and detection filters appropriate for fluorescein-like dyes.
For the first two or three days after plating, gp120 induces an immediate (within 4 seconds) calcium flux in undifferentiated HT-29 cells. The cells had previously been loaded with Fluo-4 AM ester (Molecular Probes, Eugene Oreg.) 5 micrograms/ml in the presence of Pleuronic F-127 0.02% in Locke's buffer for 30 minutes, then incubated at room temperature for an additional 30 minutes. Gp120IIIB was added while the cells were on an inverted confocal microscope using a 488 nm argon laser, with detection filters suitable for fluorescein-like dyes. […]

Substance: gp120IIIB: HIV-1 envelope surface protein gp120 of strain IIIB (X4 trophic), from the AIDS Research Reagent Referral Program
- cells substantially brighter after treatment (increase in intracellular calcium) ([1]; 50 picomolar, 4 seconds after treatment, Fluo-4): Approximately 30%
- lowest gp120IIIB concentration giving calcium flux ([1]; freshly isolated cells): 5 pM
- effect on acetylated tubulin-staining microtubules [2]: marked loss of microtubules
- calcium signaling in HT-29 cells, in words (HT-29 cells): induced an immediate calcium signal
- minimal concentration causing calcium signaling (HT-29 cells; undifferentiated HT-29 cells, serial dilution): 1 pM
